Reference: patent US11850220B2 (Augusta University Research Institute, Inc., priority 2020, dated 2023)

Legend:
Assay type in all cases: in vivo
[1] = system: carrageenan-induced paw edema; test: carrageenan-induced paw edema technique (anti-inflammatory); conditions: for Observed (1/property): 1/(% inhibition of edema thickness at 3 h effect); on Observed (1/property): test concentration or dose not given here; on Potency (% Inhibition relative to indomethacin at 3 h effect): test concentration or dose not given here
Text: Anti-inflammatory properties of the ibuprofen-amino acid conjugate (5a-j) and ibuprofen-amino acid-4-aminophenol conjugates 7a-j were studied by the standard carrageenan-induced paw edema technique (Naumov, R. N. et al., Bioorg. Med. Chem. Lett. 2015, 25, 2314-2320; Tiwari, A. D. et al., Org. Biomol. Chem. 2014, 12, 7238-7249).

[2] = system: acetic acid-induced abdominal writhing; test: acetic acid-induced abdominal writhing technique (peripheral analgesic); conditions: for Potency: Relative to indomethacin; for % Inhibition/protection / Writing reflex ± SEM: in vivo; on % Inhibition/protection: test concentration or dose not given here; on Writing reflex ± SEM: test concentration or dose not given here
hot plate = hot plate technique (central analgesic); conditions: for Potency: Relative to indomethacin at 120 min.
animal gastric mucosa = test: ulcerogenic liability; conditions: same dose as anti-inflammatory testing
[3] = % inhibition of edema thickness at 3 h effect, Table 7
[4] = anti-inflammatory property (% inhibition of edema at 3 h), Table 8

| Compound | % inhibition of edema ([1]; 1 h) [%] | Mean edema thickness ([1]; 1 h) [mm] | % inhibition of edema ([1]; 2 h) [%] | Mean edema thickness ([1]; 2 h) [mm] | % inhibition of edema ([1]; 3 h) [%] | Mean edema thickness ([1]; 3 h) [mm] | % inhibition of edema ([1]; 4 h) [%] | Mean edema thickness ([1]; 4 h) [mm] | % inhibition of edema ([1]; 24 h) [%] | Mean edema thickness ([1]; 24 h) [mm] | Potency (% Inhibition relative to indomethacin at 3 h effect) [1] [%] | Potency [2] | % Inhibition/protection [2] [%] | Writing reflex ± SEM [2] | % protection (hot plate; After 30 min.) | Latency period ± SEM (hot plate; After 30 min.) [s] | % protection (hot plate; After 60 min.) | Latency period ± SEM (hot plate; After 60 min.) [s] | % protection (hot plate; After 90 min.) | Latency period ± SEM (hot plate; After 90 min.) [s] | also measured |
| --- | --- | --- | --- | --- | --- | --- | --- | --- | --- | --- | --- | --- | --- | --- | --- | --- | --- | --- | --- | --- | --- |
| COc1ccc2c(c1)c(CC(=O)O)c(C)n2C(=O)c1ccc(Cl)cc1 [Indomethacin, reference compound] | 44 | 0.69 ± 0.05 | 45 | 0.83 ± 0.04 | 80 | 0.26 ± 0.03 | 66 | 0.43 ± 0.05 | 53 | 0.09 ± 0.02 | 100 | 100 | 54.9 | 43.9 ± 1.9 | (30.6) % | 3.16 ± 0.02 | (35.4) % | 3.02 ± 0.04 | (49.5) % | 3.29 ± 0.01 | % protection (hot plate; After 0 min.): (6.4) %; Latency period ± SEM (hot plate; After 0 min.): 3.15 ± 0.03 s; % protection (hot plate; After 120 min.): (56.6) %; Latency period ± SEM (hot plate; After 120 min.): 3.43 ± 0.05 s; Potency (hot plate): 100; % Incidence of ulcer divided by 10 (animal gastric mucosa): 10; Average of ulcer number (animal gastric mucosa): 2; Average severity of ulcer (animal gastric mucosa): 1.67; Number of animals with ulcer (animal gastric mucosa): 6/6; Ulcer index (animal gastric mucosa): 13.67 |
| CC(C)Cc1ccc(C(C)C(=O)N[C@@H](CC(C)C)C(=O)O)cc1 (some centres unmarked) [Compound 5g] | 5 | 1.17 ± 0.07 | 24 | 1.15 ± 0.06 | 58 | 0.55 ± 0.04 | 40 | 0.75 ± 0.05 | 42 | 0.11 ± 0.04 | 73 | 89 | 48.9 | 49.7 ± 1.2 | (27.7) % | 3.09 ± 0.04 | (28.7) % | 2.87 ± 0.03 | (4.1) % | 2.29 ± 0.05 | Observed (1/property) ([1]; Table 7): 0.01724; Observed property [1, 3]: 58%; Observed property [1, 4]: 58%; % protection (hot plate; After 120 min.): (3.7) %; Latency period ± SEM (hot plate; After 120 min.): 2.27 ± 0.03 s; Potency (hot plate): 7 |
| CC[C@H](C)C(NC(=O)C(C)c1ccc(CC(C)C)cc1)C(=O)O (stereo in doubt) [Compound 5f, (2-(4-Isobutylphenyl)propanoyl)-L-isoleucine] | 27 | 0.90 ± 0.05 | 29 | 1.07 ± 0.06 | 62 | 0.50 ± 0.03 | 29 | 0.89 ± 0.04 | 47 | 0.10 ± 0.03 | 78 | 85 | 46.8 | 51.8 ± 1.6 | (14.9) % | 2.78 ± 0.05 | (15.2) % | 2.57 ± 0.07 | (25.9) % | 2.77 ± 0.05 | Observed (1/property) ([1]; Table 7): 0.01613; Observed property [1, 3]: 62%; Observed property [1, 4]: 62%; % protection (hot plate; After 120 min.): (48.9) %; Latency period ± SEM (hot plate; After 120 min.): 3.26 ± 0.04 s; Potency (hot plate): 86 |
| CC(C)Cc1ccc(C(C)C(=O)N[C@@H](C)C(=O)O)cc1 (stereo partly drawn) [Compound 5b, (2-(4-Isobutylphenyl)propanoyl)-L-alanine] | 34 | 0.81 ± 0.04 | 37 | 0.95 ± 0.02 | 52 | 0.63 ± 0.01 | 51 | 0.61 ± 0.03 | 32 | 0.13 ± 0.03 | 65 | 80 | 43.8 | 54.7 ± 2.0 | (12.8) % | 2.73 ± 0.03 | (17.0) % | 2.61 ± 0.12 | (20.9) % | 2.66 ± 0.01 | Observed (1/property) ([1]; Table 7): 0.01923; Observed property [1, 3]: 52%; Observed property [1, 4]: 52%; % protection (hot plate; After 120 min.): (21.9) %; Latency period ± SEM (hot plate; After 120 min.): 2.67 ± 0.06 s; Potency (hot plate): 39 |
| CC(C)Cc1ccc(C(C)C(=O)NCCC(=O)O)cc1 (centres unmarked) [Compound 5c, 3-(2-(4-Isobutylphenyl)propanamido)propanoic acid] | 43 | 0.70 ± 0.03 | 29 | 1.07 ± 0.07 | 53 | 0.61 ± 0.04 | 36 | 0.80 ± 0.03 | 21 | 0.15 ± 0.01 | 66 | 8 | 4.2 | 93.2 ± 1.4 | (16.5) % | 2.82 ± 0.04 | (35.0) % | 3.01 ± 0.02 | (20.5) % | 2.65 ± 0.05 | Observed (1/property) ([1]; Table 7): 0.01887; Observed property [1, 3]: 53%; Observed property [1, 4]: 53%; % protection (hot plate; After 120 min.): (20.1) %; Latency period ± SEM (hot plate; After 120 min.): 2.63 ± 0.10 s; Potency (hot plate): 36 |
| CSCC[C@H](NC(=O)C(C)c1ccc(CC(C)C)cc1)C(=O)O (stereo partly drawn) [Compound 5i, (2-(4-Isobutylphenyl)propanoyl)-L-methionine] | 24 | 0.93 ± 0.04 | 54 | 0.69 ± 0.05 | 45 | 0.71 ± 0.04 | 12 | 1.10 ± 0.06 | 79 | 0.04 ± 0.01 | 56 | 40 | 22.2 | 75.7 ± 1.9 | (32.2) % | 3.20 ± 0.03 | (51.1) % | 3.35 ± 0.06 | (61.4) % | 3.55 ± 0.07 | Observed (1/property) ([1]; Table 7): 0.02222; Observed property [1, 3]: 45%; Observed property [1, 4]: 45%; % protection (hot plate; After 120 min.): (13.2) %; Latency period ± SEM (hot plate; After 120 min.): 2.48 ± 0.04 s; Potency (hot plate): 23 |
| CC(C)Cc1ccc(C(C)C(=O)N[C@H](C(=O)O)C(C)C)cc1 (some centres unmarked) [Compound 5h] | 11 | 1.09 ± 0.08 | 14 | 1.30 ± 0.07 | 57 | 0.56 ± 0.05 | 49 | 0.64 ± 0.06 | 84 | 0.03 ± 0.02 | 72 | 54 | 29.6 | 68.5 ± 2.0 | (12.8) % | 2.73 ± 0.05 | (20.6) % | 2.69 ± 0.04 | (9.5) % | 2.41 ± 0.02 | Observed (1/property) ([1]; Table 7): 0.01754; Observed property [1, 3]: 57%; Observed property [1, 4]: 57%; % protection (hot plate; After 120 min.): (6.4) %; Latency period ± SEM (hot plate; After 120 min.): 2.33 ± 0.02 s; Potency (hot plate): 11 |
| CC(C)Cc1ccc(C(C)C(=O)N[C@@H](Cc2ccccc2)C(=O)O)cc1 (stereo partly drawn) [Compound 5e, (2-(4-Isobutylphenyl)propanoyl)-L-phenylalanine] | 25 | 0.92 ± 0.07 | 19 | 1.22 ± 0.08 | 62 | 0.50 ± 0.04 | 30 | 0.88 ± 0.05 | 74 | 0.05 ± 0.02 | 78 | 84 | 46.0 | 52.5 ± 1.2 | (24.0) % | 3.00 ± 0.04 | (30.5) % | 2.91 ± 0.01 | (35.5) % | 2.98 ± 0.03 | Observed (1/property) ([1]; Table 7): 0.01613; Observed property [1, 3]: 62%; Observed property [1, 4]: 62%; % protection (hot plate; After 120 min.): (48.4) %; Latency period ± SEM (hot plate; After 120 min.): 3.25 ± 0.02 s; Potency (hot plate): 86 |
